Source: US12421253B2 (Mirati Therapeutics, Inc., priority 2020, dated 2025)

Assays:
[1] = target: T1, KRas^G12D (Homo sapiens, UniProt P01116, G12D); assay: KRas binding assay (TR-FRET displacement of Cy5 labelled tracer)
T1 construct: […]; biotin (biotinylated); purchased Accelegan Inc
Description: (§3) The ability of a compound to bind to KRas was measured using a TR-FRET displacement assay. […] After a 60-minute incubation at room temperature, the reaction was measured using a BMG LABTECH CLARIO star Plus via TR-FRET. […] The POC values were fit to a 4-parameter IC50 equation and the IC50 value reported.

[2] = target: T2, KRas^G12R (Homo sapiens, UniProt P01116, G12R); assay: as above
T2 construct: […]; biotin (biotinylated); purchased Accelegan Inc
Description: as §3

[3] = target: T3, KRas^G12V (Homo sapiens, UniProt P01116, G12V); assay: as above
T3 construct: […]; biotin (biotinylated); purchased Accelegan Inc
Description: as §3

[4] = system: A549 (G12S) cells, phospho-ERK; assay: Inhibition of KRas-mediated phosphorylation of ERK (phospho-ERK/GAPDH antibody detection, LI-COR); assay type: cell-based; conditions: Homo sapiens, 3 hours
In short: (§1)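 Cells seeded 20,000/well, attached 12-14 h, then compound (0.5% DMSO) for 3 h. Formaldehyde-fixed, methanol-permeabilized cells stained for phospho-ERK (Thr202/Tyr204) and GAPDH; infrared imaging. Ratio expressed as % of DMSO control; IC50 from 4-parameter fit.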

[5] = system: HCT116 (G13D) cells, phospho-ERK; assay: as above; assay type: cell-based; conditions: Homo sapiens, HCT-116, 3 hours
In short: as §1

[6] = system: NCI-H358 (G12C) cells, phospho-ERK; assay: as above; assay type: cell-based; conditions: Homo sapiens, 3 hours
In short: as §1

[7] = system: NCI-H727 (G12V) cells, phospho-ERK; assay: as above; assay type: cell-based; conditions: Homo sapiens, 3 hours
In short: as §1

[8] = system: PSN-1 (G12R) cells, phospho-ERK; assay: as above; assay type: cell-based; conditions: Homo sapiens, PSN1, 3 hours
In short: as §1

[9] = target: T4, KRas^WT (Homo sapiens, UniProt P01116); assay: KRas binding assay (TR-FRET displacement of Cy5 labelled tracer)
T4 construct: […]; biotin (biotinylated); purchased Accelegan Inc
Description: as §3

[10] = target: T5, KRas^G12A (Homo sapiens, UniProt P01116, G12A); assay: as above
T5 construct: […]; biotin (biotinylated); purchased Accelegan Inc
Description: as §3

[11] = target: T6, KRas^G12S (Homo sapiens, UniProt P01116, G12S); assay: as above
T6 construct: […]; biotin (biotinylated); purchased Accelegan Inc
Description: as §3

[12] = system: AsPC-1 (G12D) cells, phospho-ERK; assay: Inhibition of KRas-mediated phosphorylation of ERK (phospho-ERK/GAPDH antibody detection, LI-COR); assay type: cell-based; conditions: Homo sapiens, ASPC1, 3 hours
In short: as §1

[13] = system: NCI-H460 (Q61H) cells, phospho-ERK; assay: as above; assay type: cell-based; conditions: Homo sapiens, 3 hours
In short: as §1

[14] = target: KRas^G12C (Homo sapiens, UniProt P01116, G12C); assay: biochemical
Description: as §3

[15] = target: KRas^G13D (Homo sapiens, UniProt P01116, G13D); assay: biochemical
Description: as §3

[16] = target: KRas^Q61H (Homo sapiens, UniProt P01116, Q61H); assay: biochemical
Description: as §3

[17] = system: A549 cells, pERK; assay: Inhibition of KRas phosphorylation of ERK (Cisbio HTRF Advanced pERK assay); assay type: cell-based; conditions: Homo sapiens, 3 hrs, read-out: Inhibition (HTRF IC50 nM) of KRas-mediated Phosphorylation of ERK, A549
In short: (§2)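 Overnight-plated cells (RPMI, 10% FBS); compound 3 h, 37 °C, 10 uM top, 3-fold x10, 0.8% DMSO; min ctrl trametinib 0.2 uM; lysis 40 min 4 °C; pERK by HTRF, 2 h RT.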

[18] = system: ASPC1 cells, pERK; assay: as above; assay type: cell-based; conditions: Homo sapiens, ASPC1, 3 h, AsPC-1 cells, read-out: Inhibition (HTRF IC50 nM) of KRas-mediated Phosphorylation of ERK, AsPC-1
In short: as §2

[19] = system: H358 cells, pERK; assay: as above; assay type: cell-based; conditions: Homo sapiens, NCI-H358, 3 hrs, read-out: Inhibition (HTRF IC50 nM) of KRas-mediated Phosphorylation of ERK, H358
In short: as §2

[20] = system: H460 cells, pERK; assay: as above; assay type: cell-based; conditions: Homo sapiens, NCI-H460, 3 hrs, read-out: Inhibition (HTRF IC50 nM) of KRas-mediated Phosphorylation of ERK, H460
In short: as §2

[21] = system: H727 cells, pERK; assay: as above; assay type: cell-based; conditions: Homo sapiens, NCI-H727, 3 h, read-out: Inhibition (HTRF IC50 nM) of KRas-mediated Phosphorylation of ERK, H727
In short: as §2

[22] = system: HCT116 cells, pERK; assay: as above; assay type: cell-based; conditions: Homo sapiens, HCT-116, 3 hrs, read-out: Inhibition (HTRF IC50 nM) of KRas-mediated Phosphorylation of ERK, HCT116
In short: as §2

[23] = system: MKN1 cells, pERK; assay: as above; assay type: cell-based; conditions: Homo sapiens, MKN-1, 3 h, read-out: Inhibition (HTRF IC50 nM) of KRas-mediated Phosphorylation of ERK, MKN1
In short: as §2

[24] = system: PSN1 cells, pERK; assay: as above; assay type: cell-based; conditions: Homo sapiens, PSN1, 3 h, read-out: Inhibition (HTRF IC50 nM) of KRas-mediated Phosphorylation of ERK, PSN1
In short: as §2

T1 sequence (P01116 1-169 isoform P01116-2 G12D): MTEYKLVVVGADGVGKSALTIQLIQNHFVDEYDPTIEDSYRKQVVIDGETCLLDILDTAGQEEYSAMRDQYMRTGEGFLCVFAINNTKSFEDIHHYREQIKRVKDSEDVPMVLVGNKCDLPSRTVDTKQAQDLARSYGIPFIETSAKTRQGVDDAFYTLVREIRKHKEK
T3 sequence (P01116 1-169 isoform P01116-2 G12V): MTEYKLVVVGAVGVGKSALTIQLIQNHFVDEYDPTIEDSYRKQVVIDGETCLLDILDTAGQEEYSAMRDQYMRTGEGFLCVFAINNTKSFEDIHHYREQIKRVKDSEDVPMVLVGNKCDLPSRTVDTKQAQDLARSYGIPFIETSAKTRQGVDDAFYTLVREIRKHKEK
T2 sequence (P01116 1-169 isoform P01116-2 G12R): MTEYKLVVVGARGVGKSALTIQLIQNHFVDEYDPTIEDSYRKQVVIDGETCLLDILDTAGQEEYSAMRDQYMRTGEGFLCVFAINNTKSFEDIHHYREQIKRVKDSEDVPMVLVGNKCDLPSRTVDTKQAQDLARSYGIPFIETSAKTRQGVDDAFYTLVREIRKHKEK
KRas^G13D, sequence (P01116 1-169 isoform P01116-2 G13D): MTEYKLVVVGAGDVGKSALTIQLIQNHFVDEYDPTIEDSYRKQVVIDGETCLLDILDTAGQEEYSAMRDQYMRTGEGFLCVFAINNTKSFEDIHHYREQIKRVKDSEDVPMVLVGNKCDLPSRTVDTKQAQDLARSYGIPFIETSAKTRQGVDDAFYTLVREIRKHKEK
KRas^Q61H, sequence (P01116 1-169 isoform P01116-2 Q61H): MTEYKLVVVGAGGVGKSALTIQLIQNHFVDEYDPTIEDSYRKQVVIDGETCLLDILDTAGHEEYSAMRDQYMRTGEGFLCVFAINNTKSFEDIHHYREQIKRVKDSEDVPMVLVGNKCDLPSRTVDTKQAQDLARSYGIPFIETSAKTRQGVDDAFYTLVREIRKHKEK
KRas^G12C, sequence (P01116 1-169 isoform P01116-2 G12C): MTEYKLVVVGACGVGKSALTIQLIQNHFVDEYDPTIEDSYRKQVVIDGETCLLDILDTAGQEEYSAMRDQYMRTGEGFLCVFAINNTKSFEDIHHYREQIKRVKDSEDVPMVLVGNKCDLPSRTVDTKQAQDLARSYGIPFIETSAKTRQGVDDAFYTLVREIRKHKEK
T4 sequence (P01116 1-169 isoform P01116-2): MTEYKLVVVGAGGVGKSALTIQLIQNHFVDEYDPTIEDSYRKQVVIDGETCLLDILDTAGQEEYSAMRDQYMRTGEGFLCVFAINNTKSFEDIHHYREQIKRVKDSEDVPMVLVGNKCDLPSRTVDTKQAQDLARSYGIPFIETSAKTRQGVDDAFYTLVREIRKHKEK
T6 sequence (P01116 1-169 isoform P01116-2 G12S): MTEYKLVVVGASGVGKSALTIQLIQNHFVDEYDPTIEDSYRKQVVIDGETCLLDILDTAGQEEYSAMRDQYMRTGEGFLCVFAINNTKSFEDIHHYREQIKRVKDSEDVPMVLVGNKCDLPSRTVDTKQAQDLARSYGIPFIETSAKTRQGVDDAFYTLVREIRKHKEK
T5 sequence (P01116 1-169 isoform P01116-2 G12A): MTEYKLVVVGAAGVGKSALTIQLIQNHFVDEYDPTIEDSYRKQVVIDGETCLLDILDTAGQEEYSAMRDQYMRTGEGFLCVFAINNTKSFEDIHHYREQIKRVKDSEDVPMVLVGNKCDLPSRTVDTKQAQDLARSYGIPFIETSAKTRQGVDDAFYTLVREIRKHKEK

CCc1c(F)ccc2cc(O)cc(N3CCc4c(nc(OC[C@@]56CCCN5C[C@H](F)C6)nc4NCc4cccnc4N)C3)c12 [Example 17, 4-(4-(((2-aminopyridin-3-yl)methyl)amino)-2-(((2R,7aS)-2-fluorohexahydro-1H-pyrrolizin-7a-yl)methoxy)-5,6-dihydropyrido[3,4-d]pyrimidin-7(8H)-yl)-5-ethyl-6-fluoronaphthalen-2-ol]
IC50 [1]: 26 nM
IC50 [2]: ≤ 2 nM
IC50 [3]: ≤ 2 nM
IC50 [4]: 189 nM
IC50 [5]: 10000 nM
IC50 [6]: 232 nM
IC50 [7]: 1130 nM
IC50 [8]: > 10000 nM

CCc1c(F)ccc2cc(O)cc(N3CCc4c(nc(OCC56CCCN5CCC6)nc4N4CCC[C@@](C)(O)C4)C3)c12 [Example 1, (R)-1-(7-(8-ethyl-7-fluoro-3-hydroxynaphthalen-1-yl)-2-((hexahydro-1H-pyrrolizin-7a-yl)methoxy)-5,6,7,8-tetrahydropyrido[3,4-d]pyrimidin-4-yl)-3-methylpiperidin-3-ol]
IC50 [9]: ≤ 2 nM
IC50 [10]: ≤ 2 nM
IC50 [1]: ≤ 2 nM
IC50 [2]: ≤ 2 nM
IC50 [11]: ≤ 2 nM
IC50 [3]: ≤ 2 nM
IC50 [4]: 1020 nM
IC50 [12]: 398 nM
IC50 [5]: 601 nM
IC50 [6]: 236 nM
IC50 [13]: 357 nM
IC50 [7]: 1260 nM
IC50 [8]: 1400 nM
IC50 [14]: ≤ 2 nM
IC50 [15]: ≤ 2 nM
IC50 [16]: ≤ 2 nM

CCc1c(F)ccc2cc(O)cc(N3CCc4c(nc(OC[C@@]56CCCN5C[C@H](F)C6)nc4N4CCCn5nc(CO)cc5C4)C3)c12 [Example 34, 5-ethyl-6-fluoro-4-(2-(((2R,7aS)-2-fluorohexahydro-1H-pyrrolizin-7a-yl)methoxy)-4-(2-(hydroxymethyl)-7,8-dihydro-4H-pyrazolo[1,5-a][1,4]diazepin-5(6H)-yl)-5,6-dihydropyrido[3,4-d]pyrimidin-7(8H)-yl)naphthalen-2-ol]
IC50 [1]: ≤ 2 nM
IC50 [2]: ≤ 2 nM
IC50 [3]: ≤ 2 nM
IC50 [12]: 258 nM
IC50 [13]: 774 nM
IC50 [7]: 1040 nM
IC50 [17]: 351 nM
IC50 [18]: 31 nM
IC50 [19]: 38 nM
IC50 [20]: 784 nM
IC50 [21]: 217 nM
IC50 [22]: 1270 nM
IC50 [23]: 134 nM
IC50 [24]: ≥ 10000 nM

CCc1c(F)ccc2cc(O)cc(N3CCc4c(nc(OC[C@@]56CCCN5C[C@H](F)C6)nc4N4CCC[C@@](C)(O)C4)C3)c12 [Example 2, (R)-1-(7-(8-ethyl-7-fluoro-3-hydroxynaphthalen-1-yl)-2-(((2R,7aS)-2-fluorohexahydro-1H-pyrrolizin-7a-yl)methoxy)-5,6,7,8-tetrahydropyrido[3,4-d]pyrimidin-4-yl)-3-methylpiperidin-3-ol]
IC50 [9]: ≤ 2 nM
IC50 [10]: ≤ 2 nM
IC50 [1]: ≤ 2 nM
IC50 [2]: ≤ 2 nM
IC50 [11]: ≤ 2 nM
IC50 [3]: ≤ 2 nM
IC50 [4]: 241 nM
IC50 [12]: 280 nM
IC50 [5]: 863 nM
IC50 [6]: 252 nM
IC50 [13]: 184 nM
IC50 [7]: 798 nM
IC50 [8]: 3530 nM
IC50 [17]: 144 nM
IC50 [18]: 29 nM
IC50 [20]: 146 nM
IC50 [21]: 315 nM
IC50 [22]: 426 nM
IC50 [14]: ≤ 2 nM
IC50 [15]: 52 nM
IC50 [16]: ≤ 2 nM

CCc1c(F)ccc2cc(O)cc(N3CCc4c(nc(OC[C@@]56CCCN5C[C@H](F)C6)nc4N4CCCC5(C4)NC(=O)NC5=O)C3)c12 (stereo partly drawn) [Example 59, 7-(7-(8-ethyl-7-fluoro-3-hydroxynaphthalen-1-yl)-2-(((2R,7aS)-2-fluorohexahydro-1H-pyrrolizin-7a-yl)methoxy)-5,6,7,8-tetrahydropyrido[3,4-d]pyrimidin-4-yl)-1,3,7-triazaspiro[4.5]decane-2,4-dione]
IC50 [1]: ≤ 2 nM
IC50 [2]: ≤ 2 nM
IC50 [3]: ≤ 2 nM
IC50 [12]: 44 nM
IC50 [13]: 17 nM
IC50 [7]: 181 nM
IC50 [17]: 3 nM
IC50 [18]: 8 nM
IC50 [19]: 4 nM
IC50 [20]: 9 nM
IC50 [21]: 40 nM
IC50 [22]: 16 nM
IC50 [23]: 5 nM
IC50 [24]: 25.3 nM

CCc1c(F)ccc2cc(O)cc(N3CCc4c(nc(OC[C@@]56CCCN5C[C@H](F)C6)nc4N4CCOCC(C)(O)C4)C3)c12 (stereo partly drawn) [Example 20, 4-(7-(8-ethyl-7-fluoro-3-hydroxynaphthalen-1-yl)-2-(((2R,7aS)-2-fluorohexahydro-1H-pyrrolizin-7a-yl)methoxy)-5,6,7,8-tetrahydropyrido[3,4-d]pyrimidin-4-yl)-6-methyl-1,4-oxazepan-6-ol]
IC50 [1]: ≤ 2 nM
IC50 [2]: 52 nM
IC50 [3]: ≤ 2 nM
IC50 [4]: 446 nM
IC50 [5]: 860 nM
IC50 [6]: 314 nM
IC50 [7]: 747 nM
IC50 [8]: > 10000 nM
